For data set [1], the system named is Wild type MDCKII cells. Put plainly: Permeability in wild type MDCK cell lines (MDCK-WT). The data set is classed as in vitro ADME. To be noted: apical to basal, 10 μM test compound, 60 min, pH 7.4. How it is done:
(§1) Wild type MDCKII cells were seeded onto an apical chamber 3 days prior to running the assay at a density of 2.3×10^5 cells per well. The integrity of cell monolayers was evaluated by examining the permeability of lucifer yellow assay using a Spectramax Gemini XS with excitation and emission at 426 nm and 538 nm respectively. Permeation of Lucifer Yellow should be ≤10×10^−6 cm/s for the experimental data to be accepted. The cell monolayers were preincubated in transport buffer (HBSS with CaCl2 and MgCl2)+25 mM HEPES, adjust to pH 7.4) at 37° C. or more than 20 min. Transport experiment was initiated by adding test compound solution (10 μM) to the apical chamber. Samples were obtained from basal chamber at 60 min, followed by addition of ice-cold acetonitrile containing internal standard. LC-MS/MS analysis was conducted as specified below. Standard calibration samples were prepared using the same matrix and analysed in the same manner. [table] […] Papp(cm/s)=(dCB/dt)×VB/(A×CA) dCB/dt is the slope of the cumulative concentration in basal side versus time VB is the volume of the basal compartment A is the area of the membrane surface area CA is the initial concentration in apical side

Assay in data set [2]: as above
In kind it is in vitro ADME. The note with it: dog, MDCK, pH 7.4, apical to basal, 10 μM test compound, read-out: MDCK-WT (Papp). How it is done: as §1

Data set [3] addresses T1, KDM5A protein (Homo sapiens, UniProt P29375).
T1 construct: purchased BPS Bioscience 50110
Put plainly: Biochemical KDM5A inhibition assay (HTRF). The note with it: read-out: IC50 value. As for the experimental part:
Using 384-well white ProxiPlates (PerkinElmer), representative compounds were characterized for their inhibition of KDM5A using HTRF® technology (Cisbio Bioassays). Briefly, the test compounds, reference compounds, and DMSO control (typical compound concentration range 300 pM-10 μM, final assay concentration (FAC) of DMSO 0.5%) were added to 384-well plate by the Echo® acoustic dispensing platform (Labcyte). Three (3) μ1 of KDM5A protein (BPS Bioscience, Cat #50110)(10 or 20 nM FAC) in assay buffer (50 mM MES, 50 mM NaCl, 2 mM ascorbic acid, 0.01% v/v Tween 20, pH 6.5) was added to wells and plates were incubated for 10 minutes at room temperature. Then, 3 μl of biotin-labelled H3K4-me3 substrate (Anaspec Cat #AS-64357-1; 100 nM FAC), alpha-ketoglutaric acid ([…]) and Fe(II)SO4 (FAC 100 μM) in assay buffer was added and plates were incubated for 60 minutes at room temperature. The reaction was stopped with the addition of 6 μl of anti-H3-[…]-Eu(K) (Cisbio Bioassays Cat #61KA2KAE; 0.025 μg/ml FAC)+Streptavidin XL665 (Cisbio Bioassays Cat #610SAXLA; 0.5 μg/ml FAC) in HTRF detection buffer (Cisbio Bioassays Cat #62SDBRDD). The mixture was incubated for 90 minutes at room temperature before 340 nm excitation and measurement of dual emission at 620 nm and 665 nm. The raw data (a 665 nm and a 620 nm reading from each well) for individual assay plates were analyzed. The ratio of emissions was calculated using the following calculation: Ratio=(665 nm emission/620 nm emission)*10000. Using DMSO control (maximum response or 0% inhibition) and 1 μM reference control compound (minimum response or 100% inhibition), percentage inhibition values for each well were calculated using the median values of the minimum and maximum control wells and the following calculation: % Inhibition=(Well ratio-max control ratio)/(min control ratio-max control ratio)*100. Compound IC50 values were calculated from graphs of % inhibition plotted against compound concentration, using a four parameter curve fit.
On the technique in general: Time-resolved FRET reads energy transfer from a long-lived donor to a nearby acceptor.

SMILES strings stand for the structures. Like-named read-outs stand apart in the source and are kept apart here.

Results on 7 compounds are retold here after patent US20220289751A1, “COMPOUND HAVING KDM5 INHIBITORY ACTIVITY AND PHARMACEUTICAL USE THEREOF” (ONO PHARMACEUTICAL CO., LTD., priority 2019, published 2022).

T1 sequence (P29375 whole entry): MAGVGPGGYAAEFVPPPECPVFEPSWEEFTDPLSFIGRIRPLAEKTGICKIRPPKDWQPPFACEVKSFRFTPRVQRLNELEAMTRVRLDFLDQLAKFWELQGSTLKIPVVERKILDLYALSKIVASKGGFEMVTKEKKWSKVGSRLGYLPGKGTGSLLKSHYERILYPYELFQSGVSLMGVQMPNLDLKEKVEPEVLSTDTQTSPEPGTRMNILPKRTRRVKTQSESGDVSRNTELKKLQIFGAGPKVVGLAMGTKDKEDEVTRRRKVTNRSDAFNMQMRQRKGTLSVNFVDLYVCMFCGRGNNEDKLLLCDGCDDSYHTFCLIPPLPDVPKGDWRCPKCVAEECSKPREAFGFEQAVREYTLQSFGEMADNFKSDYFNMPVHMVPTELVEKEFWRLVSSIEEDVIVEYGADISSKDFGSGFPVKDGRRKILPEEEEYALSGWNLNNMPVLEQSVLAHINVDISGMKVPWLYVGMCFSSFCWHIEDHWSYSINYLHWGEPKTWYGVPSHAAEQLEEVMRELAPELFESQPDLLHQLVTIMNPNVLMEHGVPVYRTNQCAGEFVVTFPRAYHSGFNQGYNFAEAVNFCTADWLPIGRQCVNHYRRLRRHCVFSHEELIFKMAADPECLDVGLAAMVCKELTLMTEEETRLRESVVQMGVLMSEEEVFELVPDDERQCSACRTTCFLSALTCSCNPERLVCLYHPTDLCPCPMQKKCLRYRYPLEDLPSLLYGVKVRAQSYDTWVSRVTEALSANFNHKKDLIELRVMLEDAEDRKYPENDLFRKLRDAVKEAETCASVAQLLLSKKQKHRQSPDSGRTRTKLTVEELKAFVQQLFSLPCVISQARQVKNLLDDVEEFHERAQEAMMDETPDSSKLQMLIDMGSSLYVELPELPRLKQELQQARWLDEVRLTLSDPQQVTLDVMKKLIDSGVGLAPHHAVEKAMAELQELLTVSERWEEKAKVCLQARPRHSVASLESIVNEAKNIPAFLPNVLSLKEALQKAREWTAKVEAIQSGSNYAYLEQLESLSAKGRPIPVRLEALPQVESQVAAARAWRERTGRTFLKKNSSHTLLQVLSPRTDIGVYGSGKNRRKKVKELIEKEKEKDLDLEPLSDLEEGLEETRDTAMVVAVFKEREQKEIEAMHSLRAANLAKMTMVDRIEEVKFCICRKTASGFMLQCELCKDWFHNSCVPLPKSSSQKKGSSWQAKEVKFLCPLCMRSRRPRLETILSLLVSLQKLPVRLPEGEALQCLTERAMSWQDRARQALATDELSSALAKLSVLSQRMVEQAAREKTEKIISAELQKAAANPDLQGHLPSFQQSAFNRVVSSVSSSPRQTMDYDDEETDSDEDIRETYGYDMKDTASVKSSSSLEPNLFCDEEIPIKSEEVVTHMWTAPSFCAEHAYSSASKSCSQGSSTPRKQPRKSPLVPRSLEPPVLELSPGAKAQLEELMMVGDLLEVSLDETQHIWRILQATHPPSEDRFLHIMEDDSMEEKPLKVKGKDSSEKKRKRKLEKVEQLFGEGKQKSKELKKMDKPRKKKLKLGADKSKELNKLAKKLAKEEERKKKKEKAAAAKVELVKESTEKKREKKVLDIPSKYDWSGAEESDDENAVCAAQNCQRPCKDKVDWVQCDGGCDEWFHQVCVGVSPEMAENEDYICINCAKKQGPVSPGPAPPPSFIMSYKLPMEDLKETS

Consider `O=C(NC1CN(C(=O)c2cc(C3CC3)[nH]n2)C1)C1CC12CC2` (single isomer, unassigned) [EXAMPLE 105, N-(1-(5-cyclopropyl-1H-pyrazole-3-carbonyl)azetidin-3-yl)spiro[2.2]pentane-1-carboxamide], for which the “MDCK-WT (Papp) [10^−6 cm/s]” value in data set [1] is listed as 6 10^−6 cm/s. Take `CC(C)n1c(-c2cnn(CC3CC3)c2)nc2c(C(N)=O)ccnc2c1=O` [EXAMPLE 30, 2-(1-(Cyclopropylmethyl)-1H-pyrazol-4-yl)-3-isopropyl-4-oxo-3,4-dihydropyrido[3,2-d]pyrimidine-8-carboxamide]: in data set [2], the Papp A→B at 60 min, 10 μM stood at 37 ×10⁻⁶ cm/s. For the same compound, in data set [3] (20 nM enzyme concentration), the IC50 worked out at 300 nM. The like results for `CC(C)n1c(-c2ccccc2)nc2c(C(N)=O)ccnc2c1=O` [EXAMPLE 31, 3-isopropyl-4-oxo-2-phenyl-3,4-dihydropyrido[3,2-d]pyrimidine-8-carboxamide] were, in that order, 64 ×10⁻⁶ cm/s and 200 nM. Regarding `CC(C)c1cc(C(=O)N2C[C@@H]3[C@H](C2)[C@H]3C(=O)C2CC2)n[nH]1` [EXAMPLE 94, ((1R,5S,6r)-6-(cyclopropanecarbonyl)-3-azabicyclo[3.1.0]hexan-3-yl)(5-isopropyl-1H-pyrazol-3-yl)methanone], the Papp A→B at 60 min, 10 μM in data set [2] was determined as 68 ×10⁻⁶ cm/s. Besides, the IC50 in data set [3] (* measured at 10 nM enzyme concentration) was 1500 nM. Take `CC(C)c1c(-c2ccccc2)[nH]n2c(C#N)cnc2c1=O` [EXAMPLE 95, 7-Isopropyl-8-oxo-6-phenyl-5,8-dihydroimidazo[1,2-b]pyridazine-3-carbonitrile]: the Papp A→B at 60 min, 10 μM in data set [2] is 66 ×10⁻⁶ cm/s. For the same compound, the IC50 in data set [3] (20 nM enzyme concentration) was determined as 400 nM.

Take `CC(C)c1cc(C(=O)N2C[C@@H]3[C@H](C2)[C@H]3C(=O)N2CCCC2(C)C)n[nH]1` [EXAMPLE 131, (2,2-Dimethylpyrrolidin-1-yl)((1R,5S,6r)-3-(5-isopropyl-1H-pyrazole-3-carbonyl)-3-azabicyclo[3.1.0]hexan-6-yl)methanone]: in data set [1], the “MDCK-WT (Papp) [10^−6 cm/s]” value is listed as 20 10^−6 cm/s. As to `Cc1onc([C@H]2[C@@H]3CN(C(=O)c4cc(C(C)C)[nH]n4)C[C@@H]32)c1-c1ccccc1` [EXAMPLE 134, (5-Isopropyl-1H-pyrazol-3-yl)((1R,5S,6r)-6-(5-methyl-4-phenylisoxazol-3-yl)-3-azabicyclo[3.1.0]hexan-3-yl)methanone], the “MDCK-WT (Papp) [10^−6 cm/s]” value in data set [1] is recorded as 24 10^−6 cm/s.

By IC50 is commonly meant the point on the concentration scale where inhibition reaches its midpoint.
